Laboratory results reported in patent publication US20260256705A1, “LIPID NANOPARTICLE FORMULATIONS FOR VACCINES” (GLOBAL LIFE SCIENCES SOLUTIONS CANADA ULC, priority 2022, published 2026).

Tested on: Luciferase mRNA
Test: Intravenous protein replacement model, Luciferase mRNA LNP
Type: in vivo, mice
Details: intravenous 0.1 mg/kg, four hours post administration
Procedure: Two different LNPs according to embodiments of the invention were injected into mice intravenously at 0.1 mg/kg. The payload was Luciferase·mRNA (Trilink-CLEANCAP™ FLuc mRNA (5 moU), Cat #L-7202). The top row of photographs in FIG. 8 showing fluorescence at four hours post administration was achieved by intravenous administration of LNP comprising PNI 516 30%, DPSC 56%, cholesterol 12.5% and DMG-PEG 1.5%. The bottom row in FIG. 8, which is brighter, was achieved by LNP comprising PNI 580 30%, DSPC 56%, cholesterol 12.5%, and DMG-PEG-1.5%.

CCCCCCCCC(CCCCCC)C(=O)O[C@@H]1[C@@H](OC(=O)C(CCCCCC)CCCCCCCC)CO[C@@H]1COC(=O)CCCN(C)C (stereo partly drawn) [PNI 580, (2R,3S,4S)-2-(((4-(dimethylamino)butanoyl)oxy)methyl)tetrahydrofuran-3,4-diyl bis(2-hexyldecanoate)]
protein expression in vivo (fluorescence): slightly more effective
